{"source": "patent US9920020B2", "about": "“Using squaraine dyes as near infrared fluorescent sensors for protein detection” (The University of Akron, priority 2011, dated 2018)", "key": {"[1]": {"assay": "Fluorescence quantum yield of the dye in aqueous solution", "type": "physicochemical", "conditions": "no protein", "method": "NMR spectra were collected on a Varian 300 Gemini spectrometer. Mass spectrometric data were obtained on a HP1100LC/MSD mass spectrometry. HRMS data were performed on a TOF MS system. UV-Vis spectra were acquired on a Hewlett-Packard 8453 diode-array spectrometer. Fluorescence spectra were obtained on a HORIBA Jobin Yvon NanoLog spectrometer. The quantum yield of fluorescence of the sample was measured using bis(3-ethylbenzothiazol-2-ylidene)squaraine in ethanol (Φ=0.21) as a standard and calculated using equation (1): […]\nWhere Φunk is i the fluorescence quantum yield of the sample, Φstd is the fluorescence quantum yield of the standard, Iunk and Istd are the integrated emission intensities of the sample and the standard, respectively, Aunk and Astd are the absorbance of the sample and the standard at the excitation wavelength, respectively, and nunk and nstd are the refractive indexes of the corresponding solution.\nIn the presence of the anionic surfactant (sodium dodecyl sulfate, SDS) (1.7 mM or 0.05% wt), the fluorescence signals are further decreased by a factor of about 3. […] The emission signals at ˜684 nm is assigned to the monomeric 1b, as the fluorescence of squaraine dye typically has a small Stokes' shift (about 10-30 nm). […] Similar fluorescence enhancement is also observed from 1a and 1c after the addition of BSA. […]"}, "[2]": {"target": "T1, BSA (Bos taurus, UniProt P02769)", "T1 construct": "purchased Acros Chemical", "T1 sequence (P02769 25-607)": "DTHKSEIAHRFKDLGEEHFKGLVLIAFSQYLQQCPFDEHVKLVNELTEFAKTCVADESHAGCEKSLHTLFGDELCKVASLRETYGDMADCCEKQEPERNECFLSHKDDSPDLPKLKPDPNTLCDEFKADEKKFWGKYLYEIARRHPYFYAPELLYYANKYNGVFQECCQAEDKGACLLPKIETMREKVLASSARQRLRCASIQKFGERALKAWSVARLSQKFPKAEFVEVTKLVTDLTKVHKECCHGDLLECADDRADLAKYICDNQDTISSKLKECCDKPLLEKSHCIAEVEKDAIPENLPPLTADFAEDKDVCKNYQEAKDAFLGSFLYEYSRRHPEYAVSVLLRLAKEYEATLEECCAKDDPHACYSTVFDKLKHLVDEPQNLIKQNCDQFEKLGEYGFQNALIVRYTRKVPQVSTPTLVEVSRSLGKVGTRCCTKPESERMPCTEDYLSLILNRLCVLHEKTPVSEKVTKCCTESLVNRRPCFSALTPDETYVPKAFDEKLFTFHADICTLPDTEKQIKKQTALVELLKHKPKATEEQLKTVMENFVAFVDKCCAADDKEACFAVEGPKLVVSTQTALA", "assay": "Fluorescence response of DNSA-SQ to BSA in aqueous solution without aggregation agent", "type": "binding, bovine", "method": "(§1) With the 1:1 binding model from fitting of absorption titration spectra, the dissociation constant for BSA was estimated to be 9.35×10^−6 M upon titration with BSA in aqueous solution. In sharp contrast, there is no response to BSA in aqueous solution for 1b, as its binding to BSA requires addition of surfactant SDS or graphene.\n(§2) The fluorescence enhancement upon binding BSA reached over 140-fold, which was quite large in comparison with those being reported. The detection limit was 1 μg/mL of BSA (signal-to-noise ratio was 3). The fluorescence response of DNSA-SQ to other proteins in PBS was also investigated. […] The observed specific binding to site I can be attributed to hydrophobic pockets of BSA in its structure."}, "[3]": {"target": "T1, BSA", "assay": "Absorption titration with BSA, 1:1 binding model (dissociation constant)", "parameters": "species or system bovine", "conditions": "absorption titration in aqueous solution", "excerpt": "as §1"}, "[4]": {"target": "T2, lysozyme (Gallus gallus, UniProt P00698)", "T2 construct": "purchased SIGMA", "T2 sequence (P00698 19-147)": "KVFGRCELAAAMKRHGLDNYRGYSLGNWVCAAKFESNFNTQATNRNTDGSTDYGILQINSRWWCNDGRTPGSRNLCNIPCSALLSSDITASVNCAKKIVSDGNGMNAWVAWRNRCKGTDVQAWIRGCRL", "assay": "Fluorescence response to lysozyme in PBS", "type": "binding", "method": "as §2"}, "[5]": {"tested_on": "trypsin", "assay": "Fluorescence response to trypsin in PBS", "type": "binding", "method": "as §2"}, "[6]": {"target": "T3, formaldehyde dehydrogenase (Pseudomonas putida, UniProt P46154)", "T3 construct": "purchased SIGMA", "T3 sequence (P46154 whole entry)": "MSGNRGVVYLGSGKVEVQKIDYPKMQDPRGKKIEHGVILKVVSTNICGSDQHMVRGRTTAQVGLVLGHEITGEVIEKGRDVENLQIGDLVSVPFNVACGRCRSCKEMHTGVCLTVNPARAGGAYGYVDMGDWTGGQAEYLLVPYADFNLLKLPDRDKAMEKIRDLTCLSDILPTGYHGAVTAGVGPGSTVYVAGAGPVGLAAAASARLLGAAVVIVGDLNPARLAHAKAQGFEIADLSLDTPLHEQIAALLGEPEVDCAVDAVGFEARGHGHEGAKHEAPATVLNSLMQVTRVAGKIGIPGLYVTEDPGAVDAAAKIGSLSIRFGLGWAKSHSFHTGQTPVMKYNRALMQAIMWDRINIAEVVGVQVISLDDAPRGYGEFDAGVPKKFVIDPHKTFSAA", "assay": "Fluorescence response to formaldehyde dehydrogenase in PBS", "type": "binding", "method": "as §2"}, "[7]": {"tested_on": "lipase", "assay": "Fluorescence response to lipase in PBS", "type": "binding", "method": "as §2"}, "[8]": {"tested_on": "chymotrypsin", "assay": "Fluorescence response to chymotrypsin in PBS", "type": "binding", "method": "as §2"}, "[9]": {"target": "T4, fibrinogen (Homo sapiens, UniProt P02671+P02675+P02679)", "T4 sequence (P02671 20-629 limits assumed)": "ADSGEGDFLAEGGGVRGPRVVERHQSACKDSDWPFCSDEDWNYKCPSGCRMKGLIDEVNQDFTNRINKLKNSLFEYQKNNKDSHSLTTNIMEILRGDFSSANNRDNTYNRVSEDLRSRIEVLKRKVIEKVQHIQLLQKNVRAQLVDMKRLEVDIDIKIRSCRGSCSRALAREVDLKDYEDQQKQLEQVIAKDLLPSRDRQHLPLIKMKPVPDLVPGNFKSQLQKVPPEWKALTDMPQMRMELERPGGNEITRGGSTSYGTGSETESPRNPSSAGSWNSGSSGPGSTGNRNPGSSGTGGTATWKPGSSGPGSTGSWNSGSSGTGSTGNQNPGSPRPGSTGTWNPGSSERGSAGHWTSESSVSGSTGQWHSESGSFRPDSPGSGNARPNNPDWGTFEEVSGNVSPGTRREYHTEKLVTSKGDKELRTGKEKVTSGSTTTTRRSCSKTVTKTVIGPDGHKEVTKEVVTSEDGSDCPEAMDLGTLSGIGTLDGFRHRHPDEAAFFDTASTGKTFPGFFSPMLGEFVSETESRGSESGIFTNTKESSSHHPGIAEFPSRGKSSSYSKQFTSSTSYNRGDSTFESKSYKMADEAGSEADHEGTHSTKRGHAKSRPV", "T4 sequence (P02675 31-491)": "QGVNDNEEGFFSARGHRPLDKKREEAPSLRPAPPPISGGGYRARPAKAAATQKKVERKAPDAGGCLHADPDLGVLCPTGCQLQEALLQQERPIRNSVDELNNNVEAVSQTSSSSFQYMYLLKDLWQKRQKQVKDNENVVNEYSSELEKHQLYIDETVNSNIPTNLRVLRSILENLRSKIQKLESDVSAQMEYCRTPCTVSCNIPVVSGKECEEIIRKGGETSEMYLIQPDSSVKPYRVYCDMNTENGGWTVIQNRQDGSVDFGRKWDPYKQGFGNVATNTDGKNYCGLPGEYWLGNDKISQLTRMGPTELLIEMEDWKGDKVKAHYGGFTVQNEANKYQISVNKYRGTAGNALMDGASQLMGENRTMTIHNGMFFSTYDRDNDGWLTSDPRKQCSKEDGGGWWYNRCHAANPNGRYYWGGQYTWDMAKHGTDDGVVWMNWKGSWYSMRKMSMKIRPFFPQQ", "T4 sequence (P02679 27-433 limits assumed)": "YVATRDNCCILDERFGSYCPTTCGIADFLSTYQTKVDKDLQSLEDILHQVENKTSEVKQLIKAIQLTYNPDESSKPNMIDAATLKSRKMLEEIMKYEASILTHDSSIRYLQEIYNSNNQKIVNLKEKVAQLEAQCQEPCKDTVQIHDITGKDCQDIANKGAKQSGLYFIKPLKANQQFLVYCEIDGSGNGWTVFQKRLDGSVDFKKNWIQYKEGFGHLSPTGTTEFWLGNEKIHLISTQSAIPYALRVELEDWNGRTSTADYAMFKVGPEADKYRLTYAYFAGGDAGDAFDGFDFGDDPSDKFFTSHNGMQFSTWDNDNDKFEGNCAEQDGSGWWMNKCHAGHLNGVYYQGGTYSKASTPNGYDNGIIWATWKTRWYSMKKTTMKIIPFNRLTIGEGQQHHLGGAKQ", "assay": "Fluorescence response to fibrinogen in PBS", "type": "binding", "method": "as §2"}, "[10]": {"target": "T5, BSA site I and site II (Bos taurus, UniProt P02769)", "T5 construct": "purchased Acros Chemical", "T5 sequence (P02769 25-607)": "as the sequence (P02769 25-607) above", "assay": "Site-selective ligand displacement from BSA/DNSA-SQ complex", "type": "binding, bovine", "excerpt": "The site-selective binding of BSA/DNSA-SQ was probed by employing a site selective binding ligand, which would result in decrease in fluorescence intensity when the squaraine dyes were displaced from a specific BSA binding site. […] The observed fluorescence increasing thus implies that the BSA conformation change as DP entered the site II, which stimulated interaction of BSA/DNSA-SQ at site I. It was noted that a squaraine dye can selectively bind BSA at site I (˜40%) and site II (˜60%) on the assumption of no dependency between Site I and II of BSA. Circular dichroism (CD) was also used to probe the proposed binding mechanism. Similar CD spectra usually represent a similar binding mode between the sensor and protein. […] Under the same conditions, the effect of DNSA-SQ on the CD spectrum of BSA was similar to that of DNSA. The result further supports that DNSA-SQ was binding to site I of BSA.\nThe response of a fluorescence probe at a specific site (such as site I), therefore, could also shed some light on the binding of the other site (e.g. site II). Study of this synergetic interaction between two binding sites could lead to improved understanding on the protein-dye interaction."}, "[11]": {"target": "T1, BSA", "assay": "ESI travelling wave ion mobility mass spectrometry (TWIMS) of BSA-guest complexes", "parameters": "species or system bovine", "conditions": "15+ charge state", "excerpt": "Ion mobility mass spectrometry, when coupled with ESI, can produce an array of multiply charged gas-phase ions from protein molecules in solution which is related to the solution-phase folded and unfolded conformation of the protein. The structural measurement, namely, collision cross-section, can be calculated from the drift time of each ion. Herein we use travelling wave ion mobility mass spectrometry (TWIMS) to detect the change of the protein conformation after different site selective binding guests were added in BSA buffer solution. TWIMS was performed under the same conditions to ensure minimal error for compassion. […] As shown in FIG. 19(c), the ions of DP were generated through the tandem MS of intact complex ions at 15+. Taking 15+ charge state for example, the mobility peak drift time tD=6.41, 6.80, 6.67 and 6.54 ms for BSA, BSA+DP, BSA+DNSA-SQ and BSA+DNSA, respectively. The corresponding experimental collision cross-sections (CCS) are 4298, 4364, 4342 and 4320 Å2 using standard curve. […] This finding is consistent with the fluorescence change discussed above, particularly for the fluorescence enhancement by adding DP to BSA/DNSA-SQ."}, "[12]": {"tested_on": "BSA injected into zebrafish embryos", "assay": "DNSA-SQ labeling of live developing zebrafish embryos", "type": "in vivo", "excerpt": "(§3) The most attractive application for protein sensing is labeling and imaging in living organisms. Zebrafish have recently become an important model organism for the study of vertebrate imaging. This is because the embryos of zebrafish are transparent, allowing for clear observation of their organs without the need for dissection. The optical transparancy of zebrafish, therefore, provides a convenient organism for detection of ions by fluorescence microscopy. No published reports are found on the use of zebrafish for BSA fluorescence microscopy. Herein, DNSA-SQ was examined in developing zebrafish for its applicability. DNSA-SQ labeling was examined in developing zebrafish by adding DNSA-SQ to fish tank water (treatment lasted for one hour at room temperature). There was no labeling in control (i.e. without BSA supplement) embryos at 2.5 hours post fertilization (hpf, FIG. 20B), 36 hpf and 73 hpf (data not shown). […] At 73 hpf, the labeling was detected in the yolk and yolk extension (FIG. 20D), eye (FIG. 20E) and pigmented cells in the body trunk and tail regions (FIGS. 20G and H). […] The DNSA-SQ labeling pattern show good biocompatibility, excellent turn-on fluorescence."}, "[13]": {"tested_on": "zebrafish embryos/larvae", "assay": "Toxicity to zebrafish embryos/larvae", "type": "in vivo", "excerpt": "as §3\nTherefore DNSA-SQ was proving not toxic to the subjects. […]"}, "[14]": {"conditions": "dye in fish tank water, one hour, room temperature"}}, "note": "pKd: −log10 of the molar value."}
{"smiles": "CCN1C(=CC2=C([N-]S(=O)(=O)c3cccc4c(N(C)C)cccc34)C(=Cc3sc4ccccc4[n+]3CC)C2=O)Sc2ccccc21", "note": "[DNSA-SQ]", "values": [{"measurement": "fluorescence quantum yield φfl", "setting": "[1]", "value": "1.0×10^−4"}, {"measurement": "fluorescence enhancement upon binding BSA", "setting": "[2]; 674 nm, no aggregation agent", "value": "over 140 fold"}, {"measurement": "detection limit of BSA", "setting": "[2]; signal-to-noise ratio 3", "value": 1, "unit": "µg/mL"}, {"measurement": "pKd", "setting": "[3]", "value": 5.03}, {"measurement": "fluorescence change with lysozyme", "setting": "[4]", "value": "no obvious fluorescence change"}, {"measurement": "fluorescence change with trypsin", "setting": "[5]", "value": "no obvious fluorescence change"}, {"measurement": "fluorescence change with formaldehyde dehydrogenase", "setting": "[6]", "value": "no obvious fluorescence change"}, {"measurement": "fluorescence change with lipase", "setting": "[7]", "value": "no obvious fluorescence change"}, {"measurement": "fluorescence change with chymotrypsin", "setting": "[8]", "value": "no obvious fluorescence change"}, {"measurement": "fluorescence change with fibrinogen", "setting": "[9]", "value": "no obvious fluorescence change"}, {"measurement": "fluorescence of BSA/DNSA-SQ complex on addition of site I ligand DNSA", "setting": "[10]; displacement by DNSA", "value": "did not result in fluorescence intensity change"}, {"measurement": "fluorescence of BSA/DNSA-SQ complex on addition of site II ligand DP", "setting": "[10]; displacement by DP", "value": "fluorescence intensity increasing"}, {"measurement": "BSA binding site selectivity", "setting": "[10]; displacement by site-selective ligands and mass spectra data", "value": "enters selectively at site I"}, {"measurement": "mobility peak drift time tD of BSA-guest complex", "setting": "[11]", "value": 6.67, "unit": "ms"}, {"measurement": "experimental collision cross-section (CCS) of BSA-guest complex", "setting": "[11]; standard curve", "value": 4342, "unit": "Å2"}, {"measurement": "labeling of control embryos without BSA supplement", "setting": "[12]; 2.5, 36 and 73 hpf", "value": "no labeling"}, {"measurement": "labeling of BSA-injected embryos at 2.5 hpf", "setting": "[12]; [14]", "value": "labeling of all dividing cells"}, {"measurement": "labeling of BSA-injected embryos at 73 hpf", "setting": "[12]; [14]", "value": "confined BSA labeling"}, {"measurement": "cell membrane penetration", "setting": "[12]; living zebrafish embryos", "value": "can easily penetrate through cell membranes"}, {"measurement": "size and shape of treated embryos/larvae compared to untreated", "setting": "[13]", "value": "appeared normal in size and shape"}, {"measurement": "toxicity to treated embryos/larvae", "setting": "[13]", "value": "not toxic"}]}
